Reference: patent US20240092829A1, “PEPTIDE HAVING PROTECTIVE ACTIVITY AGAINST CELL DAMAGE CAUSED BY PARTICULATE MATTER, AND USES FOR SAME” (CAREGEN CO., LTD., priority 2020, published 2024)
Peptide text beside a SMILES is read from it.

Experiments:
cytochrome P450 [1] = test: Cytochrome P450 activity in HaCaT cells (P450-Glo Assay kit); assay type: cell-based; settings: HaCaT human keratinocytes; peptide pretreatment 1 hour at 20, 100, 200 μM; then 50 μg/cm^2 urban particulate matter 24 hours; FIG. 3
From the text: When polyaromatic hydrocarbons (PAHs) present in particulate matter penetrate into cells and bind to AHR, it promotes nuclear translocation of AHR. It is known that the AHR translocated into the nucleus forms a complex AHR/ARNT with an AHR nuclear translocator (ARNT), and this complex act as a transcription factor to promote the expression of cytochrome P450 (CYPs). In order to confirm the effect of the synthesized peptide in inhibiting cell damage caused by particulate matter, an experiment was performed for confirming whether the peptide inhibits the activity of cytochrome P450 after the cells were treated with particulate matter.
(§1) First, HaCaT cells, which are human keratinocytes, were seeded into a 96-well plate at a density of 1×10^4 cells/well. After overnight incubation, the media were replaced with serum-free media. The keratinocytes, HaCaT were pretreated with the synthesized peptides for 1 hour at each concentration (20 μM, 100 μM, and 200 μM). Then, the cells were treated with 50 μg/cm^2 of urban particulate matter (Sigma, NIST1648A) for 24 hours. After the keratinocytes were collected, the activity of cytochrome P450 was measured using P450-Glo™ Assay kit (Promega).

cytochrome P450 [2] = test: Cytochrome P450 activity in A549 cells (P450-Glo Assay kit); assay type: cell-based; settings: A549 human alveolar epithelial cells; peptide pretreatment 1 hour at 20, 100, 200 μM; then 50 μg/cm^2 urban particulate matter 24 hours; FIG. 4
Description: In addition, in order to confirm whether the peptide of the present invention can suppress respiratory damage caused by particulate matter, an experiment for measuring the activity of cytochrome P450 was also performed on A549 cells, which are human alveolar epithelial cells.
as §1, with “human alveolar epithelial” for “HaCaT”, “A549 cells” for “which are human keratinocytes,”, “1.2×10^4” for “1×10^4”, “alveolar epithelial cells, A549 cells” for “keratinocytes, HaCaT”, “treated cells” for “keratinocytes”

- activity of cytochrome P450 increased by the treatment of particulate matter (cytochrome P450 [1]): reduced
- activity of cytochrome P450 increased by the treatment of particulate matter (cytochrome P450 [2]): reduced
SMILES: CSCC[C@H](NC(=O)[C@H](Cc1ccc(O)cc1)NC(=O)[C@@H](N)Cc1c[nH]c2ccccc12)C(=O)O [SEQ ID NO: 1, Trp Tyr Met] (H-Trp-Tyr-Met-OH; N-terminus and C-terminus assumed)
